According to article PMC10223284, “Category-Based Toxicokinetic Evaluations of Data-Poor Per- and Polyfluoroalkyl Substances (PFAS) using Gas Chromatography Coupled with Mass Spectrometry” (Toxics, 2023):
“And” between values parts separate entries of the source, which are not always exact repeats. Identical values can stand only once. Like-named read-outs stand apart in the source and are kept apart here.

Experiments:
human primary cells = conditions: cited from earlier work
[1] = Hepatic metabolic stability (hepatocyte clearance) assay, substrate depletion; assay type: in vitro ADME, human; conditions: both sexes, human
Source text: (§1) William’s Medium E (Gibco A1217601), dexamethasone, and cell maintenance cocktail B (Gibco CM4000) were obtained from Thermo Fisher Scientific (Waltham, MA, USA). Hepatosure OptiThaw media (P/N K8000; Lot No. 18–1–0322) was obtained from Sekisui Xenotech (Kansas City, KS, USA). Trypan blue solution (P/N 1450021) was obtained from Bio-Rad (Hercules, CA, USA). Pooled human cryopreserved primary hepatocyte suspensions were obtained from BioIVT (Westbury, NY, USA) and produced using nontransplantable tissue. The human 50-donor pool (mixed gender; Cat X0080005; Lot MYC), selected from BioIVT’s commercially available, prepooled lots, was selected following review of vendor-generated metabolic characterization information. Pooled, mixed-sex human plasma from de-identified donors was obtained from a commercial vendor that operates a U.S. Food and Drug Administration-licensed and inspected donor center (BioIVT bioivt.com (accessed 12 May 2023). Donors comprised five males and five females and ranged from 20 to 50 years of age. Plasma collected using anticoagulant K2EDTA was sterile-filtered ([…]) and stored at <−70 °C until use.
(§2) The hepatic metabolic stability assay measures the loss of a parent compound over time in a substrate-depletion approach. Briefly, hepatocyte suspensions, after a viability assessment, were diluted in complete William’s medium E (containing dexamethasone and cell maintenance cocktail B) prior to addition to 96-well polypropylene plates containing an equal volume of media spiked with the test compound (1 μM assay concentration; assay cell density = 50,000 cells/100 μL) and maintained at 37 °C with shaking. At each time point, relevant plates were crashed with an equal volume of ice-cold acetonitrile, centrifuged, and supernatant transferred to a new plate prior to storage at <−70 °C until quantitative analysis. Controls, run in parallel, included cell-free (i.e., media only) and metabolically inactivated hepatocytes to evaluate abiotic chemical stability in the aqueous media matrix with and without cellular protein. In preliminary runs, these controls were run at T0 and T240 only. If significant instability was noted, the hepatocyte clearance assay was rerun, including cell-free samples at each time point and metabolically inactivated hepatocytes at selected time points.
(§3) To process samples for quantitative analysis, samples were thawed and mixed. An aliquot of sample was removed and diluted in acetonitrile (1 part sample plus 9 parts acetonitrile) containing the relevant ISs selected for the PFAS being analyzed (See Table S2). The target at instrument concentration of each IS was 10 pg/μL.
(§4) The curves were generated using concentration/response ratios from the target analyte and IS, with either linear or quadratic regression models. The model and weighting, if necessary, were chosen to most accurately reflect the response of each compound and was evaluated by recalculating the individual calibration points using the curve. An acceptable model reflected an accuracy of ±30% of the theoretical value.
(§5) Hepatic metabolic clearance data were plotted in semi-log format (ln concentration vs. time) with three replicates at each time point, as previously described. […] The equations described below are used to calculate the chemical half-life (T½) and intrinsic in vitro clearance (Clin vitro) with units of μL/(min × million hepatocytes). In Equation (3), 2000 is a scalar used to adjust the assay cell number up to be consistent with units of 1 million cells in the Clint equation.
(§6) Negative controls, including media only and metabolically inactivated hepatocyte controls, were included to monitor abiotic loss (i.e., background clearance) during the assay. Where significant compound loss occurred using the analysis described above, background clearance rates were calculated and used to background-adjust hepatic metabolic clearance rates. […]

[2] = test system: pooled human cryopreserved primary hepatocyte suspensions; experiment: as above; assay type: in vitro ADME
Source text: as §1, §2, §3, §4, §5, §6

[3] = In vitro-in vivo extrapolation (IVIVE) to Css and administered equivalent dose (AED); parameters: species or system human
Method: Using the experimentally generated PPB (fraction unbound in plasma, fup) and hepatic Clint data, IVIVE was performed as previously described to calculate human steady-state plasma concentrations (Css). Briefly, experimental measures of fup are adjusted using blood:plasma partitioning information to estimate the fraction unbound in blood (fub). Experimental hepatocyte Clint data are scaled up to represent whole-liver clearance (L/h). […] Once estimated, these Css values are considered in conjunction with published in vitro bioactivity concentrations (i.e., lowest-observed effective concentrations, or LOECs) to calculate AEDs (Table 2). See Table S10 for all relevant IVIVE inputs, scalars, calculations, and outputs.

human plasma [4] = experiment: Chemical stability in plasma over the UC assay time course (T5hr/T1hr)
Method: Three replicates were run per experiment, with 4NT included as a reference compound in each to evaluate assay performance. All PFAS and 4NT, prepared at a 3 mM working stock, were added to human plasma to achieve a final, thoroughly mixed assay concentration of 10 μM, incubated at 37 °C for 1 h with shaking. […] After UC, the aqueous fraction (AF; i.e., supernatant devoid of plasma proteins/lipoproteins/fatty acids) was collected and transferred to a new tube. The second aliquot maintained at 37 °C was collected (T5hr). At the relevant time points, each volume of sample was combined with 3 volumes of vigorously mixed ice-cold acetonitrile with the labeled IS and stored for 10 min at −20 °C prior to centrifugation at 12,000× g for 10 min at 4 °C. The supernatant was collected and stored at <−70 °C until quantitative analysis. […] Furthermore, chemical stability in plasma over the assay time course was assessed using the T1hr and T5hr samples.
Percent chemical remaining at the end of the UC assay (T5hr/T1hr) was used to remove unstable chemicals from further evaluation.

human plasma [5] = experiment: Ultracentrifugation (UC) plasma protein binding assay, fraction unbound in plasma (fup)
[6] = Abiotic loss in negative controls of the hepatocyte clearance assay (cell-free media, metabolically inactivated hepatocytes); assay type: in vitro ADME
Method in brief: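 Test compound at 1 μM incubated at 37 °C with shaking in complete William's medium E, either cell-free or with metabolically inactivated hepatocytes, then quenched with ice-cold acetonitrile for quantitative analysis.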

in vitro = conditions: both, human, plasma
[7] = hepatocyte incubation, Rep 1-3, start conc 1000 nM
[8] = heat treated hepatocytes, Rep 1-3

In the case of OCC(F)(F)C(F)(F)C(F)(F)C(F)(F)C(F)(F)C(F)(F)CO [1H,1H,8H,8H-Perfluorooctane-1,8-diol], the LOEC (human primary cells; BioSeek lowest-observed effect concentration used for AED) is given as 7.00 µM, the LOEC (human primary cells; minimum lowest-observed effect concentration, BioSeek platform) is given as 7 µM and the hepatocyte CLint at 1 μM ([1]; hepatocytes, background-subtracted, read-out: Bkgd-Sub Clearance (µL/min/106 hepatocytes)) is given as 20 µL/min/1e6 cells. For the same compound, the hepatocyte CLint at 1 μM ([1]; hepatocytes, hepatocyte clearance, Conc 1000 nM, not background adjusted, read-out: Unadj Clint) was 22.8 µL/min/1e6 cells, the hepatocyte CLint at 1 μM ([1]; hepatocytes, pooled human hepatocyte suspensions, 1 μM, read-out: In Vitro Clint) was 20 µL/min/1e6 cells and the hepatocyte CLint at 1 μM ([1]; hepatocytes, unadjusted hepatocyte intrinsic clearance, read-out: Unadj in vitro Clint) was 22.8 µL/min/1e6 cells. It also gave a hepatocyte CLint at 1 μM ([1]; hepatocytes, hepatocyte time course, NS = slope not significant, read-out: Linear Regression Results, Best-Fit Values, Clearance) of 22.8 µL/min/1e6 cells, a half-life at 1 μM ([1]; hepatocytes, hepatocyte time course, NS = slope not significant, read-out: Linear Regression Results, Best-Fit Values, Half Life) of 1.01 h and a hepatocyte CLint at 1 μM ([1]; s9, Bayesian analysis median, 1 μM assay concentration (Table S9), read-out: Clint.1.Med) of 5.03 µL/min/1e6 cells. For the same compound, the “Concentration (nM), Time 0 min” value [2, 7] was 833.88 nM and 886.538 nM and 918.72 nM, the “Concentration (nM), Time 15 min” value [2, 7] was 552.068 nM and 564.688 nM and 626.636 nM and the “Concentration (nM), Time 30 min” value [2, 7] was 572.698 nM and 772.55 nM and 675.577 nM. The “Concentration (nM), Time 60 min” value [2, 7] was 915.509 nM and 882.56 nM and 951.955 nM, the “Concentration (nM), Time 120 min” value [2, 7] was 252.926 nM and 197.823 nM and 212.459 nM and the “Linear Regression Results, Best-Fit Values, Slope” value ([2]; hepatocyte time course) was -0.01141. For the same compound, the Css ([3]; Assuming 1 mg/kg/day dose rate, BW 70 kg) was 0.16 mg/L and 0.45 uM, the Clhep ([3]; IVIVE, hepatocyte Clint scaled to whole-liver clearance) was 17.326 L/h and the AED ([3]; administered equivalent dose from LOEC and Css) was 15.5263 mg/kg/day. The Fub ([3]; fub=fup/(B:P), Fub set to 1 if needed) was 0.1018, the Css ([3]; human steady-state plasma concentration, assuming 1 mg/kg/day dosage) was 0.45 µM and the CLint ([3]; scaled with HPGL 110 mill cells/g, Vl 1596 g) was 3512253 µL/min. For the same compound, the “Time 1 hr” value (human plasma [4]; amount measured in plasma sample at 1 hr, replicates A, B, C, unit not given) was 8242.79 and 6998.48 and 7495.85 and 8652.78 and 7694.03 and 8210.48, the “Time 5 hr” value (human plasma [4]; amount measured in plasma sample at 5 hr, replicates A, B, C, unit not given) was 7470.56 and 8168.83 and 8821.07 and 7477.64 (2×) and 9359.65 and the “Stability (T5hr/ T1hr), Run-specific Avg” value (human plasma [4]; average of one UC run (run date in line above)) was 0.913. For the same compound, the PPB_Stab_Fail (human plasma [4]; flag for stability failure in the plasma protein binding assay (1 = fail, 0 = pass)) was 0, the “Mean Stability” value (human plasma [4]; mean T5hr/T1hr ratio over all replicates and runs, plasma) was 0.997 and the Fstable.Med (human plasma [4]; median fraction stable in plasma, UC assay Level4) was 0.989. The “Aqueous Fraction” value (human plasma [5]; amount measured in aqueous fraction after ultracentrifugation, replicates A, B, C, unit not given) was 467.47 and 486.886 and 467.528 and 459.225 and 404.056 and 403.816, the fup (human plasma [5]; human plasma, 10 μM, ultracentrifugation, 37 °C) was 0.0560 and the Fup.Med (human plasma [5]; median fraction unbound in plasma, UC assay Level4) was 0.0465. It also gave a Fup.point (human plasma [5]; point estimate of fraction unbound in plasma, UC assay Level4) of 0.0506, a half-life at 1 μM ([6]; buffer, no cells control, 0 vs 240 min, read-out: No Cells BkgdCl, Half Life) of 8.21 h and a Hep_Stab_Fail ([6]; flag for stability failure in hepatocyte clearance assay controls (1 or Fst = fail, 0 = pass)) of 0. The “HT BkgdCl, Slope” value ([6]; heat treated hepatocytes control, 0 vs 240 min) was -0.00103, the “Negative Controls, Heat Treated (HT), concentration at 0 min” value [6, 8] was 1090.28 nM and 973.38 nM and 645.077 nM and the “Negative Controls, Heat Treated (HT), concentration at 240 min” value [6, 8] was 595.287 nM and 737.448 nM and 742.842 nM. For the same compound, the “No Cells BkgdCl, Slope” value ([6]; no cells control, 0 vs 240 min) was -0.001407, the “Negative Controls, No cells (NC), concentration at 0 min” value ([6]; no cells, Rep 1-3) was 937.465 nM and 878.747 nM and 1163.86 nM and the “Negative Controls, No cells (NC), concentration at 240 min” value ([6]; no cells, Rep 1-3) was 676.807 nM and 658.518 nM and 781.013 nM. For the same compound, the fraction unbound (in vitro; Fraction Unbound (fu), Run-specific Avg, average of one UC run (run date in line above)) was 0.0529, the fraction unbound (in vitro; Fraction Unbound (fu), individual replicates A, B, C of the UC run named in c8) was 0.0626 and the fraction unbound (in vitro; Mean fu, fraction unbound in human plasma, ultracentrifugation, some values based on eLOQ) was 0.056.
